Usually IC50 stands for the concentration at which inhibition is half-maximal. A higher IC50 goes with lower potency.

Molecules are shown by their SMILES. Where only a bound is given, the exact number is not on record here.

In experiment [1] the target is T1, 5-hydroxytryptamine receptor 1A (Rattus norvegicus, UniProt P19327).
T1 sequence (P19327 whole entry): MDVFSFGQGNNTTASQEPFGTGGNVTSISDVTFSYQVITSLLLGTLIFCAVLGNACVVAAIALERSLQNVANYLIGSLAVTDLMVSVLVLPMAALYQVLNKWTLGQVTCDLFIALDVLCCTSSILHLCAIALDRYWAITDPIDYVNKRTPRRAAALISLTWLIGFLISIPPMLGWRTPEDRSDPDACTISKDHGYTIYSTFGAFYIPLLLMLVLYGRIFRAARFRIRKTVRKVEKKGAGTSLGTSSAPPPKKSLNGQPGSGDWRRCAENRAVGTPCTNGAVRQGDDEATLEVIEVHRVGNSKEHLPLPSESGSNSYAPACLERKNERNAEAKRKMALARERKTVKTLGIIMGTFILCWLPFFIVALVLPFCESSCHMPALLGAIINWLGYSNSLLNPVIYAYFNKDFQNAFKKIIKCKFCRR
Kind of experiment: Inhibitory activity against 5-hydroxytryptamine 1A receptor subtype.

The target of experiment [2] is 5-hydroxytryptamine receptor 1E (Homo sapiens, UniProt P28566). Briefly: Inhibitory activity against 5-hydroxytryptamine 1E receptor subtype.
5-hydroxytryptamine receptor 1E, sequence (P28566 whole entry): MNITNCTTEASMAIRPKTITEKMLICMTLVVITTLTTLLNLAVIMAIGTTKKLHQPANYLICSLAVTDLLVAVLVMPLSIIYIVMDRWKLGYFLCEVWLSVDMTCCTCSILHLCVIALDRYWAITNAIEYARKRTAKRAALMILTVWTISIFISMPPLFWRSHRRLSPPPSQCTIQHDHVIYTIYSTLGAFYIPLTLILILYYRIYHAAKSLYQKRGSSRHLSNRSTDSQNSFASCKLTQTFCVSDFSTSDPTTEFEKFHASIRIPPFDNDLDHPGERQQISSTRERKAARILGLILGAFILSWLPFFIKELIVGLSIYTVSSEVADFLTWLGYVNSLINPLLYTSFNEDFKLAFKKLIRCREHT
Experiment [3] concerns the target Sodium-dependent serotonin transporter (Rattus norvegicus, UniProt P31652). Kind of experiment: Ability to inhibit Serotonin transporter.

Sodium-dependent serotonin transporter, sequence (P31652 whole entry): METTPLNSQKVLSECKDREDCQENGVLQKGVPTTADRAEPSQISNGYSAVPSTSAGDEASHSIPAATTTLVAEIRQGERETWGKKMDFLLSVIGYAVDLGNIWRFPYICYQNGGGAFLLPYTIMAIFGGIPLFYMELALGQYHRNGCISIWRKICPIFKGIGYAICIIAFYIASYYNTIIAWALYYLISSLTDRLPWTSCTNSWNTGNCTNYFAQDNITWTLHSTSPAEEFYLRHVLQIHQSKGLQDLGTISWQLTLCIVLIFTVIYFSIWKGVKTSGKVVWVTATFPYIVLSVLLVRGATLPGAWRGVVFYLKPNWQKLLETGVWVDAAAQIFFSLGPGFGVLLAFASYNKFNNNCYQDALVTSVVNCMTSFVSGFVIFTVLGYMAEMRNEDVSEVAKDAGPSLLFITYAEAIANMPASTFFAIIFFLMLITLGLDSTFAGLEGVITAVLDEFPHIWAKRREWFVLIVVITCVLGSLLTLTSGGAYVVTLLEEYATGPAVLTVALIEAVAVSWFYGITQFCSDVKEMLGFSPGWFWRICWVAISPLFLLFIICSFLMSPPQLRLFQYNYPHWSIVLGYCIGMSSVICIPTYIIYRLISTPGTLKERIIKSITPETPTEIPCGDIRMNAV

As for `NC(=O)c1ccc2[nH]cc(C3=CCC(NCCCCCNC4CC=C(c5c[nH]c6ccc(C(N)=O)cc56)CC4)CC3)c2c1` (centres undefined), the IC50 in experiment [1] was 2.86 nM; in experiment [2] it was above 1000 nM; in experiment [3], 47.5 nM.

Consider `NC(=O)c1ccc2[nH]cc(C3=CCC(NCCCCCCNC4CC=C(c5c[nH]c6ccc(C(N)=O)cc56)CC4)CC3)c2c1` (centres undefined), for which the figures for the IC50 in experiment [1], in experiment [2] and in experiment [3] were 2.27 nM, above 1000 nM and 33.9 nM, respectively.

In the case of `NC(=O)c1ccc2[nH]cc(C3=CCC(NCCNC4CC=C(c5c[nH]c6ccc(C(N)=O)cc56)CC4)CC3)c2c1` (centres undefined), the IC50 is 2 nM in experiment [1], above 1000 nM in experiment [2] and 12.6 nM in experiment [3].

In the case of `NC(=O)c1ccc2[nH]cc(C3=CCC(NCCCCCCCNC4CC=C(c5c[nH]c6ccc(C(N)=O)cc56)CC4)CC3)c2c1` (centres undefined), the IC50 in experiment [1] was 1.83 nM; in experiment [2], 99 nM; in experiment [3], 17.7 nM.

In experiment [1], `NC(=O)c1ccc2[nH]cc(C3=CCC(NCCCCCCCCCCCCNC4CC=C(c5c[nH]c6ccc(C(N)=O)cc56)CC4)CC3)c2c1` (centres undefined) yielded an IC50 of 0.13 nM.

As to `NC(=O)c1ccc2[nH]cc(C3=CCC(NCCCCCCCCNC4CC=C(c5c[nH]c6ccc(C(N)=O)cc56)CC4)CC3)c2c1` (centres undefined), the IC50 is 2.13 nM in experiment [1], 392 nM in experiment [2] and 12.4 nM in experiment [3].

`NC(=O)c1ccc2[nH]cc(C3=CCC(NCCCCNC4CC=C(c5c[nH]c6ccc(C(N)=O)cc56)CC4)CC3)c2c1` (centres undefined): the IC50 in experiment [1] was 14.5 nM; in experiment [2], above 1000 nM; in experiment [3], 47.8 nM.

As for `NC(=O)c1ccc2[nH]cc(C3=CCC(NCCCNC4CC=C(c5c[nH]c6ccc(C(N)=O)cc56)CC4)CC3)c2c1` (centres undefined), the half-maximal inhibitory concentration (IC50) in experiment [1] is 18 nM; in experiment [2], above 1000 nM.

Turning to `NC(=O)c1ccc2[nH]cc(C3=CCC(NCCCCCCCCCCNC4CC=C(c5c[nH]c6ccc(C(N)=O)cc56)CC4)CC3)c2c1` (centres undefined), the IC50 in experiment [1] is 0.22 nM; in experiment [2] it was above 1000 nM.

`CCCCCCCNC1CC=C(c2c[nH]c3ccc(C(N)=O)cc23)CC1` (centres undefined) showed an IC50 in experiment [1] of 1.27 nM.
